Test results: the NIST ThermoML archive (doi:10.1021/acs.jced.9b00752)
Numbers after ± are expanded uncertainties.

Assay: mn = molality of the nth substance listed, in mol/kg
Settings: 100 kPa, Liquid, Vibrating tube method

N[C@@H](Cc1c[nH]cn1)C(=O)O [L-histidine] + O
mass density [kg/m3]
Settings | 278.65 K | 279.15 K | 279.65 K | 280.15 K | 280.65 K | 281.15 K | 281.65 K | 282.15 K | 282.65 K | 283.15 K
m1 = 0.0078 | 1000.43 ± 0.12 | 1000.42 ± 0.12 | 1000.4 ± 0.12 | 1000.38 ± 0.12 | 1000.36 ± 0.12 | 1000.33 ± 0.12 | 1000.29 ± 0.12 | 1000.26 ± 0.12 | 1000.22 ± 0.12 | 1000.18 ± 0.12
m1 = 0.0176 | 1001 ± 0.12 | 1000.98 ± 0.12 | 1000.97 ± 0.12 | 1000.94 ± 0.12 | 1000.92 ± 0.12 | 1000.89 ± 0.12 | 1000.85 ± 0.12 | 1000.82 ± 0.12 | 1000.78 ± 0.12 | 1000.73 ± 0.12
m1 = 0.0269 | 1001.6 ± 0.12 | 1001.58 ± 0.12 | 1001.56 ± 0.12 | 1001.53 ± 0.12 | 1001.51 ± 0.12 | 1001.48 ± 0.12 | 1001.44 ± 0.12 | 1001.41 ± 0.12 | 1001.36 ± 0.12 | 1001.32 ± 0.12
m1 = 0.048 | 1002.82 ± 0.12 | 1002.8 ± 0.12 | 1002.78 ± 0.12 | 1002.75 ± 0.12 | 1002.73 ± 0.12 | 1002.69 ± 0.12 | 1002.65 ± 0.12 | 1002.62 ± 0.12 | 1002.57 ± 0.12 | 1002.53 ± 0.12
m1 = 0.0636 | 1003.84 ± 0.12 | 1003.82 ± 0.12 | 1003.79 ± 0.12 | 1003.76 ± 0.12 | 1003.73 ± 0.12 | 1003.7 ± 0.12 | 1003.66 ± 0.12 | 1003.62 ± 0.12 | 1003.58 ± 0.12 | 1003.53 ± 0.12
m1 = 0.0856 | 1005.07 ± 0.12 | 1005.05 ± 0.12 | 1005.02 ± 0.12 | 1004.99 ± 0.12 | 1004.96 ± 0.12 | 1004.92 ± 0.12 | 1004.88 ± 0.12 | 1004.84 ± 0.12 | 1004.79 ± 0.12 | 1004.74 ± 0.12
m1 = 0.0982 | 1005.82 ± 0.12 | 1005.8 ± 0.12 | 1005.77 ± 0.12 | 1005.74 ± 0.12 | 1005.71 ± 0.12 | 1005.67 ± 0.12 | 1005.63 ± 0.12 | 1005.59 ± 0.12 | 1005.54 ± 0.12 | 1005.49 ± 0.12
m1 = 0.115 | 1006.7 ± 0.12 | 1006.68 ± 0.12 | 1006.65 ± 0.12 | 1006.62 ± 0.12 | 1006.58 ± 0.12 | 1006.54 ± 0.12 | 1006.5 ± 0.12 | 1006.46 ± 0.12 | 1006.41 ± 0.12 | 1006.36 ± 0.12
m1 = 0.1268 | 1007.49 ± 0.12 | 1007.46 ± 0.12 | 1007.43 ± 0.12 | 1007.39 ± 0.12 | 1007.36 ± 0.12 | 1007.32 ± 0.12 | 1007.27 ± 0.12 | 1007.23 ± 0.12 | 1007.18 ± 0.12 | 1007.13 ± 0.12
m1 = 0.138 | 1008.16 ± 0.12 | 1008.13 ± 0.12 | 1008.1 ± 0.12 | 1008.06 ± 0.12 | 1008.03 ± 0.12 | 1007.99 ± 0.12 | 1007.94 ± 0.12 | 1007.89 ± 0.12 | 1007.84 ± 0.12 | 1007.79 ± 0.12
m1 = 0.1586 | 1009.47 ± 0.12 | 1009.44 ± 0.12 | 1009.41 ± 0.12 | 1009.37 ± 0.12 | 1009.33 ± 0.12 | 1009.28 ± 0.12 | 1009.24 ± 0.12 | 1009.19 ± 0.12 | 1009.13 ± 0.12 | 1009.08 ± 0.12
